Assays:
[1] = target: Serine/threonine-protein kinase 4 (Homo sapiens) (UniProt Q13043); assay: Inhibition of MST1 (unknown origin) at 1 uM by mobility shift microfluidics platform based assay relative to control
[2] = target: Mitogen-activated protein kinase 3 (Homo sapiens) (UniProt P27361); assay: Inhibition of MAPK3 (unknown origin) at 1 uM by mobility shift microfluidics platform based assay relative to control
[3] = target: Ephrin type-A receptor 2 (Homo sapiens) (UniProt P29317); assay: Inhibition of EPH-A2 (unknown origin) at 1 uM by mobility shift microfluidics platform based assay relative to control
[4] = target: Dual specificity tyrosine-phosphorylation-regulated kinase 2 (Homo sapiens) (UniProt Q92630); assay: Inhibition of DYRK2 (unknown origin) at 1 uM by mobility shift microfluidics platform based assay relative to control
[5] = target: Ephrin type-B receptor 4 (Homo sapiens) (UniProt P54760); assay: Inhibition of EPH-B4 (unknown origin) at 1 uM by mobility shift microfluidics platform based assay relative to control
[6] = target: Serine/threonine-protein kinase MARK2 (Homo sapiens) (UniProt Q7KZI7); assay: Inhibition of PAR-1B-alpha (unknown origin) at 1 uM by mobility shift microfluidics platform based assay relative to control
[7] = target: Tyrosine-protein kinase ZAP-70 (Homo sapiens) (UniProt P43403); assay: Inhibition of ZAP70 (unknown origin) at 1 uM by mobility shift microfluidics platform based assay relative to control
[8] = target: Mitogen-activated protein kinase kinase kinase 7 (Homo sapiens) (UniProt O43318); assay: Inhibition of TAK1 (unknown origin) at 1 uM by mobility shift microfluidics platform based assay relative to control
[9] = target: RAC-beta serine/threonine-protein kinase (Homo sapiens) (UniProt P31751); assay: Inhibition of AKT2 (unknown origin) at 1 uM by mobility shift microfluidics platform based assay relative to control
[10] = target: High affinity nerve growth factor receptor (Homo sapiens) (UniProt P04629); assay: Inhibition of TRKA (unknown origin) at 1 uM by mobility shift microfluidics platform based assay relative to control
[11] = target: Tyrosine-protein kinase Srms (Homo sapiens) (UniProt Q9H3Y6); assay: Inhibition of SRMS (unknown origin) at 1 uM by mobility shift microfluidics platform based assay relative to control
[12] = target: Casein kinase I isoform alpha (Homo sapiens) (UniProt P48729); assay: Inhibition of CK1-alpha1 (unknown origin) at 1 uM by mobility shift microfluidics platform based assay relative to control
[13] = target: Receptor-interacting serine/threonine-protein kinase 2 (Homo sapiens) (UniProt O43353); assay: Inhibition of RIPK2 (unknown origin) at 1 uM by mobility shift microfluidics platform based assay relative to control
[14] = target: Dual specificity tyrosine-phosphorylation-regulated kinase 4 (Homo sapiens) (UniProt Q9NR20); assay: Inhibition of DYRK4 (unknown origin) at 1 uM by mobility shift microfluidics platform based assay relative to control
[15] = target: AMP-activated protein kinase (AMPK) alpha-1/beta-1/gamma-1 (Homo sapiens) (UniProt P54619+Q9Y478+Q13131); assay: Inhibition of AMP-A1B1G1 (unknown origin) at 1 uM by mobility shift microfluidics platform based assay relative to control; assay type: protein-complex assay
[16] = target: Serine/threonine-protein kinase PAK 4 (Homo sapiens) (UniProt O96013); assay: Inhibition of PAK4 (unknown origin) at 1 uM by mobility shift microfluidics platform based assay relative to control
[17] = target: Serine/threonine-protein kinase BRSK1 (Homo sapiens) (UniProt Q8TDC3); assay: Inhibition of BRSK1 (unknown origin) at 1 uM by mobility shift microfluidics platform based assay relative to control
[18] = target: Vascular endothelial growth factor receptor 2 (Homo sapiens) (UniProt P35968); assay: Inhibition of KDR (unknown origin) at 1 uM by mobility shift microfluidics platform based assay relative to control
[19] = target: Serine/threonine-protein kinase PLK3 (Homo sapiens) (UniProt Q9H4B4); assay: Inhibition of PLK3 (unknown origin) at 1 uM by mobility shift microfluidics platform based assay relative to control
[20] = target: Dual specificity protein kinase CLK3 (Homo sapiens) (UniProt P49761); assay: Inhibition of CLK3 (unknown origin) at 1 uM by mobility shift microfluidics platform based assay relative to control
[21] = target: Tyrosine-protein kinase BTK (Homo sapiens) (UniProt Q06187); assay: Inhibition of BTK (unknown origin) at 1 uM by mobility shift microfluidics platform based assay relative to control
[22] = target: Inhibitor of nuclear factor kappa-B kinase subunit beta (Homo sapiens) (UniProt O14920); assay: Inhibition of IKK-beta (unknown origin) at 1 uM by mobility shift microfluidics platform based assay relative to control
[23] = target: Tyrosine-protein kinase Fer (Homo sapiens) (UniProt P16591); assay: Inhibition of FER (unknown origin) at 1 uM by mobility shift microfluidics platform based assay relative to control
[24] = target: RAC-gamma serine/threonine-protein kinase (Homo sapiens) (UniProt Q9Y243); assay: Inhibition of AKT3 (unknown origin) at 1 uM by mobility shift microfluidics platform based assay relative to control
[25] = target: Serine/threonine-protein kinase TAO2 (Homo sapiens) (UniProt Q9UL54); assay: Inhibition of TAOK2 (unknown origin) at 1 uM by mobility shift microfluidics platform based assay relative to control
[26] = target: Serine/threonine-protein kinase 26 (Homo sapiens) (UniProt Q9P289); assay: Inhibition of MST4 (unknown origin) at 1 uM by mobility shift microfluidics platform based assay relative to control
[27] = target: Ribosomal protein S6 kinase beta-1 (Homo sapiens) (UniProt P23443); assay: Inhibition of P70S6K1 (unknown origin) at 1 uM by mobility shift microfluidics platform based assay relative to control
[28] = target: Inhibitor of nuclear factor kappa-B kinase subunit alpha (Homo sapiens) (UniProt O15111); assay: Inhibition of IKK-alpha (unknown origin) at 1 uM by mobility shift microfluidics platform based assay relative to control
[29] = target: Protein kinase C theta type (Homo sapiens) (UniProt Q04759); assay: Inhibition of PKC-theta (unknown origin) at 1 uM by mobility shift microfluidics platform based assay relative to control
[30] = target: Testis-specific serine/threonine-protein kinase 1 (Homo sapiens) (UniProt Q9BXA7); assay: Inhibition of TSSK1 (unknown origin) at 1 uM by mobility shift microfluidics platform based assay relative to control
[31] = target: Serine/threonine-protein kinase haspin (Homo sapiens) (UniProt Q8TF76); assay: Inhibition of HASPIN (unknown origin) at 1 uM by mobility shift microfluidics platform based assay relative to control
[32] = target: Serine/threonine-protein kinase Sgk3 (Homo sapiens) (UniProt Q96BR1); assay: Inhibition of SGK3 (unknown origin) at 1 uM by mobility shift microfluidics platform based assay relative to control
[33] = target: Platelet-derived growth factor receptor beta (Homo sapiens) (UniProt P09619); assay: Inhibition of PDGFR-beta (unknown origin) at 1 uM by mobility shift microfluidics platform based assay relative to control

RAC-beta serine/threonine-protein kinase (Homo sapiens), sequence (P31751 whole entry): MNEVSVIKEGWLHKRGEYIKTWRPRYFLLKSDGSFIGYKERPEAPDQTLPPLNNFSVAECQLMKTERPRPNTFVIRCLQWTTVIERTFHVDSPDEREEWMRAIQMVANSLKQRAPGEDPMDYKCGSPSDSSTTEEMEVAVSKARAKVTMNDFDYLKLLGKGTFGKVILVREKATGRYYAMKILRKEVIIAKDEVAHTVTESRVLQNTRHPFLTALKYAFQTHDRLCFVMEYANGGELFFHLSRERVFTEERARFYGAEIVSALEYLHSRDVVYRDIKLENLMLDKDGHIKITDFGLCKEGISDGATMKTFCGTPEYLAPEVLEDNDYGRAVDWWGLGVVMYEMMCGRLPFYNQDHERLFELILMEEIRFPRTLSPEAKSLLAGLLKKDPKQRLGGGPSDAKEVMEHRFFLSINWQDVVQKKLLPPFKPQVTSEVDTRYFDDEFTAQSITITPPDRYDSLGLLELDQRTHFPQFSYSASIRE
Serine/threonine-protein kinase 26 (Homo sapiens), sequence (Q9P289 2-416 limits assumed): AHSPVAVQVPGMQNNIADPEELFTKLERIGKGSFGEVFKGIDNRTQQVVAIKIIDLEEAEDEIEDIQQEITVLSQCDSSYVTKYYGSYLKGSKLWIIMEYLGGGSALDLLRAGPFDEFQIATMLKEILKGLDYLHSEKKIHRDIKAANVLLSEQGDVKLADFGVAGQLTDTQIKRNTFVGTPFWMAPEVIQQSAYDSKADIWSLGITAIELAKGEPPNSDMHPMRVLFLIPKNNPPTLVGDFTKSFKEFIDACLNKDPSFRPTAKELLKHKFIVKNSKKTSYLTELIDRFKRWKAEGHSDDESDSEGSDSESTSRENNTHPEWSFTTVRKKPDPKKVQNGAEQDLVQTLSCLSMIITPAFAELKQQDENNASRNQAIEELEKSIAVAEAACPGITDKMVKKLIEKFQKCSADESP
Serine/threonine-protein kinase haspin (Homo sapiens), sequence (Q8TF76 whole entry): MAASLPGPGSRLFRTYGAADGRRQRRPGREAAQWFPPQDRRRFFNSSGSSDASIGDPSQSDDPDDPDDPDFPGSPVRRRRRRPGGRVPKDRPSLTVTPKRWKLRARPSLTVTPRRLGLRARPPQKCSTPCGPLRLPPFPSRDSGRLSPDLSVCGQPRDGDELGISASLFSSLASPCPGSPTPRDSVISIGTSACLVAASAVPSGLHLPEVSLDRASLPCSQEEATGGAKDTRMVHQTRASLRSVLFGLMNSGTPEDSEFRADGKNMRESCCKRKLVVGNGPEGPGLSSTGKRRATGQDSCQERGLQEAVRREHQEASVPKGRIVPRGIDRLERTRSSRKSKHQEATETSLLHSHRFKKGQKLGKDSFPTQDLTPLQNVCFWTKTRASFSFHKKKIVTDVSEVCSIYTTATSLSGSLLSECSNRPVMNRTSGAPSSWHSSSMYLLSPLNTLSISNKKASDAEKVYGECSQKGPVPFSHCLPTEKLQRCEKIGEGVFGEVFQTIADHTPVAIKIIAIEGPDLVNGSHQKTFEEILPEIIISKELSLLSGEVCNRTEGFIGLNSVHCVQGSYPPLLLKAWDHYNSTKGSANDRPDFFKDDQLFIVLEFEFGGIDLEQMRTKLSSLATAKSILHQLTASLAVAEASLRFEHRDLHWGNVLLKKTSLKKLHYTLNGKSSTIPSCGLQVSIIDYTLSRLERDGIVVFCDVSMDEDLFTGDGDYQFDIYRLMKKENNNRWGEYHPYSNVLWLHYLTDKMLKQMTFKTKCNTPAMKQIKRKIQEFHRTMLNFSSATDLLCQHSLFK
Dual specificity tyrosine-phosphorylation-regulated kinase 2 (Homo sapiens), sequence (Q92630 whole entry): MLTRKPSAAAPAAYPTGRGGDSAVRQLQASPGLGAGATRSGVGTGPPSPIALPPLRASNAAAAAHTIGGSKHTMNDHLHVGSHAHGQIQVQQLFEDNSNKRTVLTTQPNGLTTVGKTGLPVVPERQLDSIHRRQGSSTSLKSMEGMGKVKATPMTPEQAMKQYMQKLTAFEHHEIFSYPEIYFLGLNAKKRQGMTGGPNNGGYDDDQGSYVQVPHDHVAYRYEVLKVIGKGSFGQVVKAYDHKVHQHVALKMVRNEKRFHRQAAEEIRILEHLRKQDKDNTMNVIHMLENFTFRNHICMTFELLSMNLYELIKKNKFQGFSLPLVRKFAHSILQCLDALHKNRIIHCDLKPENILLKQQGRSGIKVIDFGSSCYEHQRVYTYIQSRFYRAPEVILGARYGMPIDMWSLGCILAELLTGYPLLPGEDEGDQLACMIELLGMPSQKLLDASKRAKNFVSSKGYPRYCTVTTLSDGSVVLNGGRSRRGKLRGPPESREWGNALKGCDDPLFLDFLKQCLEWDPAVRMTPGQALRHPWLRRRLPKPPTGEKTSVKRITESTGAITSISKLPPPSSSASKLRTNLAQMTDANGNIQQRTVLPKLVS
Testis-specific serine/threonine-protein kinase 1 (Homo sapiens), sequence (Q9BXA7 whole entry): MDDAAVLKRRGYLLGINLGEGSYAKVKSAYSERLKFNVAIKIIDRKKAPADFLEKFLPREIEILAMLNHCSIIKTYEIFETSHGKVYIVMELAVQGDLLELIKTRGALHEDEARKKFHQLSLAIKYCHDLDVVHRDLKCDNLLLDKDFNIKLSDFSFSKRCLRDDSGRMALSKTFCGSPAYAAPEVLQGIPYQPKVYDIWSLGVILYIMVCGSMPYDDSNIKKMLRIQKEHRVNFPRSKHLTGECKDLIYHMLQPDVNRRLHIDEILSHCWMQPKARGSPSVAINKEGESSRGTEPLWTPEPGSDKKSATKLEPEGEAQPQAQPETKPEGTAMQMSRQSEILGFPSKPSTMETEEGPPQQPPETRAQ
Receptor-interacting serine/threonine-protein kinase 2 (Homo sapiens), sequence (O43353 whole entry): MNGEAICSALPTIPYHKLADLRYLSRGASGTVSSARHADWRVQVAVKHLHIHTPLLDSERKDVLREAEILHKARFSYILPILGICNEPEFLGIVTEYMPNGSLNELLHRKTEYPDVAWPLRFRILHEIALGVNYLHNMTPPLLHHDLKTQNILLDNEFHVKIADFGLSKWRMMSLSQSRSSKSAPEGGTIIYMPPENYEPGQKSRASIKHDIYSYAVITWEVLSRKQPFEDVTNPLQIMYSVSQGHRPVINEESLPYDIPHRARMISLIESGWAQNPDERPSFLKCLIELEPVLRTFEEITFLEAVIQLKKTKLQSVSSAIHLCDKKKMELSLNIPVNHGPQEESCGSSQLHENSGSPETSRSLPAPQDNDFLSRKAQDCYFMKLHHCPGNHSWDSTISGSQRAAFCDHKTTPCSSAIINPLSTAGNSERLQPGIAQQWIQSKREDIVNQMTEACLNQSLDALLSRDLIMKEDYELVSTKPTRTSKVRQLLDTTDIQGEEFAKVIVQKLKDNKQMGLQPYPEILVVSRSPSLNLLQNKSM
Ribosomal protein S6 kinase beta-1 (Homo sapiens), sequence (P23443 whole entry, looked up): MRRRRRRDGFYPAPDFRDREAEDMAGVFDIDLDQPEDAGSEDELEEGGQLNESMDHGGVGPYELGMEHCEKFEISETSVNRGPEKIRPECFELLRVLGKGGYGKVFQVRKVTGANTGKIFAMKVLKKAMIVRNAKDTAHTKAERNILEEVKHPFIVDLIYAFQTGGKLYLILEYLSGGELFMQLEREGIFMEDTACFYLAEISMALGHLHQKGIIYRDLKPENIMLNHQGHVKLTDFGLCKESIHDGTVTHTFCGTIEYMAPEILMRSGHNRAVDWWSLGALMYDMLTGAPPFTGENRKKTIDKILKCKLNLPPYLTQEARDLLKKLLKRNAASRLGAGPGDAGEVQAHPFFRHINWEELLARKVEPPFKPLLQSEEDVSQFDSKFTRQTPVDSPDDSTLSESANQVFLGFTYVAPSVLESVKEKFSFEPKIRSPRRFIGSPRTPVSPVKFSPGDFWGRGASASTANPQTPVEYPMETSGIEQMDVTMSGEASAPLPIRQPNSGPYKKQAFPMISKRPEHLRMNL
Casein kinase I isoform alpha (Homo sapiens), sequence (P48729 2-337 limits assumed): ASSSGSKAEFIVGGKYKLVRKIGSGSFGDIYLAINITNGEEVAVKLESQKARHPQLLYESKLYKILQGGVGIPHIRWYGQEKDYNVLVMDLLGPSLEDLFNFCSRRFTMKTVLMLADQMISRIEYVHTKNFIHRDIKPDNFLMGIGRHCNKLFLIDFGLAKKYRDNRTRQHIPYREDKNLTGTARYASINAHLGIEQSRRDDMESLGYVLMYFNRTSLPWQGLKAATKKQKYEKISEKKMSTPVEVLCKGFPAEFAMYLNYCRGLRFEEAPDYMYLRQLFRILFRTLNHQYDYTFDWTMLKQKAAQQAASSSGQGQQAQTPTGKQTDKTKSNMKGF
Tyrosine-protein kinase Fer (Homo sapiens), sequence (P16591 whole entry, looked up): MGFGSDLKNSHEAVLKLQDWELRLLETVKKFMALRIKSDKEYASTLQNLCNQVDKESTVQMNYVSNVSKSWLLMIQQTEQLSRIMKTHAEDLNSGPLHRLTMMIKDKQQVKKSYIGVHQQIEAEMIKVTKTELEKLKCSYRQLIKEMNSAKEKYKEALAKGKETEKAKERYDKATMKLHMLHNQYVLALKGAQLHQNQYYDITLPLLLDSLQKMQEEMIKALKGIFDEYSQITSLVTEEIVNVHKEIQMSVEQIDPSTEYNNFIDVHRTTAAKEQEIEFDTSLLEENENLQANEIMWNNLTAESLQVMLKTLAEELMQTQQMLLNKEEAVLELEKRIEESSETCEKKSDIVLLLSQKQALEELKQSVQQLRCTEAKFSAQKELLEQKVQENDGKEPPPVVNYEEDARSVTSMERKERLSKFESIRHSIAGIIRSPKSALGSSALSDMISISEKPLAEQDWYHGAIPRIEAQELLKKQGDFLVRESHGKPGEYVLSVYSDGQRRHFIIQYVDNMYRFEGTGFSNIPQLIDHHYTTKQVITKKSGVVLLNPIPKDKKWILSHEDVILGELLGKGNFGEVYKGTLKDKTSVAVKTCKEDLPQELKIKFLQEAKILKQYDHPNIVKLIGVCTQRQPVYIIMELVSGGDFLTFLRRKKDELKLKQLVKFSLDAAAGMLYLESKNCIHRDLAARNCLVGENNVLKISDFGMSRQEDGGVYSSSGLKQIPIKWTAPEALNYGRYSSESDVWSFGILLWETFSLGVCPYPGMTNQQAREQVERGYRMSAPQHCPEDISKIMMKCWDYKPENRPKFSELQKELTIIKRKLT

inhibition [1]	inhibition [2]	inhibition [3]	inhibition [4]	inhibition [5]	inhibition [6]	inhibition [7]	inhibition [8]	inhibition [9]	inhibition [10]	inhibition [11]	inhibition [12]	inhibition [13]	inhibition [14]	inhibition [15]	inhibition [16]	inhibition [17]	inhibition [18]	inhibition [19]	inhibition [20]	Structure (SMILES)	also measured
10%	1%	100%	11%	97%	0%	3%	62%	0%	22%	55%	10%	98%	-1%	2%	0%	-10%	109%	3%	-1%	CC(C)n1nc(C#Cc2cccc(NC(=O)c3cccc(C(F)(F)F)c3)c2)c2c(N)ncnc21	inhibition [21]: 71%; inhibition [22]: 22%; inhibition [23]: 40%; inhibition [24]: 2%; inhibition [25]: 17%; inhibition [26]: 9%; inhibition [27]: 5%; inhibition [28]: 26%; inhibition [29]: 0%; inhibition [30]: 0%; inhibition [31]: 5%; inhibition [32]: -2%; inhibition [33]: 100%
4%	1%	90%	-3%	80%	0%	4%	5%	-10%	2%	20%	2%	82%	-7%	0%	2%	0%	98%	0%	6%	CC(C)n1nc(C#Cc2cccc3cc(-c4cccc(C(F)(F)F)c4)ncc23)c2c(N)ncnc21	inhibition [21]: 5%; inhibition [22]: 2%; inhibition [23]: 12%; inhibition [24]: 3%; inhibition [25]: 17%; inhibition [26]: -1%; inhibition [27]: 1%; inhibition [28]: -3%; inhibition [29]: -2%; inhibition [30]: -1%; inhibition [31]: 1%; inhibition [32]: -3%; inhibition [33]: 71%

From ChEMBL document CHEMBL4229333, “Effects of rigidity on the selectivity of protein kinase inhibitors” (Eur J Med Chem, 2018)
